Results from patent US20210322397A1, “METHOD TO PREVENT AND TREAT GINGIVAL RECESSION BY CALCIUM CHANNEL BLOCKERS, ANGIOTENSIN CONVERTING ENZYME INHIBITORS, AND ANGIOTENSIN RECEPTOR BLOCKERS” (priority 2018, published 2021).
Where two headings read alike, the source gives them in different places.

Columns and labels:
gingival recession [1] = settings: patient with gingival recession throughout the mouth
Excerpt: (§1) A patient is diagnosed with gingival recession throughout the mouth.
A patient is diagnosed with gingival recession throughout the mouth. A composition comprising the ACE inhibitor enalapril is directly applied to the tissue of the gum on one side of the mouth while the other side is left untreated.
A patient is diagnosed with gingival recession throughout the mouth. A composition comprising the angiotensin receptor blocker losartan is directly applied to the tissue of the gum on one side of the mouth while the other side is left untreated.
as §1
A patient is diagnosed with gingival recession throughout the mouth. A composition comprising the ACE inhibitor enalapril is administered by injection into the tissue of the gum on one side of the mouth while the other side is left untreated.
A patient is diagnosed with gingival recession throughout the mouth. A composition comprising the angiotensin receptor blocker losartan is administered by injection into the tissue of the gum on one side of the mouth while the other side is left untreated.

gingival recession [2] = settings: patient previously successfully treated, after a period of time
Protocol: A composition comprising the ACE inhibitor enalapril is directly applied to the tissue of the gum on one side of the mouth while the other side is left untreated.
A composition comprising the angiotensin receptor blocker losartan is directly applied to the tissue of the gum on one side of the mouth while the other side is left untreated.
A composition comprising the ACE inhibitor enalapril is administered by injection into the tissue of the gum on one side of the mouth while the other side is left untreated.
A composition comprising the angiotensin receptor blocker losartan is administered by injection into the tissue of the gum on one side of the mouth while the other side is left untreated.

[3] = composition administered by injection into the tissue of the gum on one side
[4] = composition directly applied to the tissue of the gum on one side

Row | Compound | symptoms of gingival recession, treated side versus untreated side (gingival recession [1]; [3]) | symptoms of gingival recession, treated side versus untreated side (gingival recession [1]; [4]) | recurrence of symptoms of gingival recession, treated side versus untreated side (gingival recession [2]; [3]) | recurrence of symptoms of gingival recession, treated side versus untreated side (gingival recession [2]; [4])
1 | CCOC(=O)[C@H](CCc1ccccc1)N[C@@H](C)C(=O)N1CCC[C@H]1C(=O)O [enalapril] | reduced symptoms of gingival recession | reduced symptoms of gingival recession | free of symptoms of gingival recession | free of symptoms of gingival recession
2 | CCCCc1nc(Cl)c(CO)n1Cc1ccc(-c2ccccc2-c2nn[nH]n2)cc1 [losartan] | reduced symptoms of gingival recession | reduced symptoms of gingival recession | free of symptoms of gingival recession | free of symptoms of gingival recession
